The subject of one assay is middle cerebral artery. Description: Contractile tension in isolated middle cerebral artery (isometric myograph). As to conditions: isolated rat middle cerebral artery; for Contractile response Emax: % of contraction evoked by 100 mM KCl; for pEC50: read-out: Contractile response EC50. The procedure: (§1) Preparations were equilibrated unstretched for 30 min.
Another assay relates to femoral artery. Description: Contractile tension in isolated femoral artery (isometric myograph). As to conditions: isolated rat femoral artery; for Contractile response Emax: % of contraction evoked by 100 mM KCl. The method, then:
as §1

The next assay relates to coronary artery. Description: Contractile tension in isolated coronary artery (isometric myograph). To be noted: isolated rat coronary artery; for Contractile response Emax: % of contraction evoked by 100 mM KCl. The procedure: as §1
A further assay has as its system carotid artery. Description: Contractile tension in isolated carotid artery (isometric myograph). As to conditions: isolated rat carotid artery; for Contractile response Emax: % of contraction evoked by 100 mM KCl. The procedure:
as §1

For assay [1], the system named is basilar artery. Put plainly: Contractile tension in isolated basilar artery (isometric myograph). As to conditions: isolated rat basilar artery; for Contractile response Emax: % of contraction evoked by 100 mM KCl; for pEC50: read-out: Contractile response EC50. The method, then: as §1
A further assay deals with cerebral blood flow. Put plainly: Relative cerebral blood flow by laser Doppler flowmetry in anesthetized rats. As to conditions: for Relative cerebral blood flow (rCBF) in cerebral cortex: 0.3 mg/kg infused into left internal carotid artery, anesthetized rats. The format is in vivo, rat. The method, then:
Pentobarbital-anaesthetized mechanically-ventilated male rats (250-300 g, Charles River) were maintained at 37.0±0.5° C. A femoral vein and artery were cannulated to monitor mean arterial blood pressure, heart rate and arterial blood gases. The left common carotid artery was ligated. The animals were placed in a stereotaxic frame and relative cerebral blood flow (rCBF) was measured by a laser Doppler flow probe (Model PF2B, Perimed) affixed to the thinned skull above the vascular territory of the left middle cerebral artery (2 mm posterior to Bregma, 3 mm lateral to midline). Changes in rCBF were expressed as a percentage of baseline and recorded for 20 minutes beginning at the onset of drug or vehicle infusion. S1P, DHS1P or vehicle were infused (100 μl/2 minutes) into the left internal carotid artery. Some rats were pretreated with suramin via infusion (200 μl/2 min) into the left femoral vein.

The test system of the next assay is mouse basilar arteries. Put plainly: Constriction of mouse basilar artery. To be noted: data not shown.
For the next assay, the system named is rabbit basilar arteries. Put plainly: Constriction of rabbit basilar artery. To be noted: data not shown.
Assay [2] deals with S1P-induced vasoconstriction of basilar artery. Description: Modulation of S1P-induced vasoconstriction in isolated basilar artery. More on the design: species or system rat.
For assay [3], the system named is basilar artery. Also on record: species or system rat.
Where [4] appears, read: read-out: Contractile response EC50.

pEC50: −log10 of the molar value.

The results in this text go back to US20010041688A1, “Methods and compositions for the regulation of vasoconstriction” (priority 2000, published 2001).

Method for mouse basilar arteries: (§2) Arterial segments (1.5-2 mm) in physiological solution (mM: NaCl, 118; KCl, 4.6; NaHCO3, 25; MgSO4, 1.2; KH2PO4, 1.2; CaCl2, 2.5; glucose, 10; EDTA, 0.025; pH 7.4 at 37° C., 95% O2-5% CO2) were threaded onto 40 μm stainless steel wires (25 μm for mouse basilar) and mounted in a isometric myograph (601M, Danish Myo Technology). Preparations were equilibrated unstretched for 30 min. The normalized passive resting force and the corresponding diameter were determined as published. […] The preparations were then challenged with 100 mM KCl, 5-hydroxytryptamine (Sigma) or sphingolipids. Contractions were expressed in % of the KCl-evoked contraction. Sphingosine, dimethylsphingosine or suramin (Calbiochem) were added 30 min prior to 5-HT or S1P.
Method for rabbit basilar arteries: as §2

The term pEC50 denotes the EC50 on a negative log10 scale, so that one unit is a factor of ten. On to `NCCc1c[nH]c2ccc(O)cc12` [5-HT, 5-hydroxytryptamine], for which the “Contractile response Emax” value is 73.2 % KCl in the assay with middle cerebral artery; 133.2 % KCl in the assay with femoral artery; 119.3 % KCl in the assay with coronary artery; 101.1 % KCl with carotid artery; 99.5 % KCl in the assay with basilar artery [1]. Moreover, the pEC50 was 7.36 in the assay with middle cerebral artery; 6.91 in the assay with femoral artery (setting [4]); 6.62 in the assay with coronary artery (setting [4]); 5.50 in the assay with carotid artery (setting [4]); 7.20 in the assay with basilar artery [1].
Consider `CCCCCCCCCCCCCCC[C@@H](O)[C@@H](N)COP(=O)(O)O` [DHS1P, dihydrosphingosine-1-phosphate], for which the “Contractile response Emax” value turned out to be 6.3 % KCl in the assay with femoral artery, 15.9 % KCl in the assay with coronary artery, 5.9 % KCl in the assay on carotid artery and 58.8 % KCl in the assay with basilar artery [1]. Further, in the assay on basilar artery [1], the “Contraction (in words)” value is on record as “less effectively than S1P”. The negative logarithm of the EC50 (pEC50) in the assay with basilar artery [1] was 6.62. Besides, in the assay with cerebral blood flow, the “Relative cerebral blood flow (rCBF) in cerebral cortex” value is “reduced rCBF, although less potently”.
Regarding `[Cl-].[K+]` [KCl, potassium chloride], the “Contractile response to KCl” value with middle cerebral artery (100 mM KCl) came to 1.05 mN/mm; with femoral artery (100 mM KCl), 4.52 mN/mm; in the assay on coronary artery (100 mM KCl), 1.87 mN/mm; in the assay on carotid artery (100 mM KCl), 2.28 mN/mm; with basilar artery [1] (100 mM KCl), 1.70 mN/mm.
On to `CCCCCCCCCCCCC/C=C/[C@@H](O)[C@@H](N)COP(=O)(O)O` [S1P, sphingosine-1-phosphate], for which the “Constriction (in words)” value with mouse basilar arteries and in the assay with rabbit basilar arteries was “able to constrict” each time. The “Contraction (in words)” value in the assay with middle cerebral artery was “robust contraction”; in the assay with femoral artery, “unresponsive”; in the assay on coronary artery, “weakly constricted”; in the assay on carotid artery, “unresponsive”; in the assay on basilar artery [1], “robust contraction”. Also, the “Contractile response Emax” value in the assay with middle cerebral artery was found to be 77.6 % KCl; in the assay on femoral artery it was 3.6 % KCl; with coronary artery, 16.9 % KCl; in the assay on carotid artery, 5.2 % KCl; in the assay on basilar artery [1], 96.7 % KCl. The pEC50 in the assay with middle cerebral artery was 6.46; in the assay with basilar artery [1], 6.55. Also, the “Relative cerebral blood flow (rCBF) in cerebral cortex” value with cerebral blood flow is listed as “decreased”.
Take `CCCCCCCCCCCCC/C=C/[C@@H](O)[C@@H](N)CO` [sphingosine]: the “Contractile response to S1P after preincubation with sphingosine together with DMS” value in assay [2] (sphingosine 10 μM plus DMS 20 μM, added 30 min prior to S1P) is “fully blocked”.
In the case of `Cc1ccc(C(=O)Nc2ccc(S(=O)(=O)O)c3cc(S(=O)(=O)O)cc(S(=O)(=O)O)c23)cc1NC(=O)c1cccc(NC(=O)Nc2cccc(C(=O)Nc3cc(C(=O)Nc4ccc(S(=O)(=O)O)c5cc(S(=O)(=O)O)cc(S(=O)(=O)O)c45)ccc3C)c2)c1` [suramin], the “Contractile response to 5-HT after preincubation with suramin” value in the assay on basilar artery [3] (data not shown) is recorded as “did not modify”. Further, the “Contractile response to S1P after preincubation with suramin” value in [2] (10 μM suramin, added 30 min prior to S1P) is “markedly depressed”. Besides, the “S1P's effect on rCBF after suramin pretreatment” value with cerebral blood flow (suramin 16 mg/kg via femoral vein, S1P 0.3 mg/kg) is listed as “abolished”.
As to Pertussis toxin, the “Response to 5-HT1 receptor agonist 5-carboxamidotryptamine after incubation with toxin” value in the assay on basilar artery [3] (without toxin 92±10, n=4, p<0.05) is recorded as 30±2 % of KCl-evoked contraction. In [2] (basilar artery segments treated in vitro with toxin), the “Effect of toxin incubation on S1P-induced vasoconstriction (in words)” value was “did not modify”.
